In patent US10597368B2, “Syringolin analogues and methods of making and using same” (BROWN UNIVERSITY, priority 2015, dated 2020):

Target: T1, human 20S proteasome (hs20S), chymotrypsin-like β5-subunits (Homo sapiens, UniProt P20618+P28074)
T1 construct: purchased R&D
Test: In vitro 20S peptidase inhibition kinetics, chymotrypsin-like activity (Suc-LLVY-AMC)
Format: biochemical
Details: second-order rate constant, Suc-LLVY-AMC substrate, 37° C.
Protocol: In vitro 20S peptidase inhibition assays were recorded in a 384-well plate at a SpectraMax M5 (Molecular devises) plate-reader. Therefore, 5 nM human 20S (R&D) was incubated in buffer R (50 mM HEPES-KOH, pH 7.5, 0.5 mM EDTA) with 100 μM of the fluorogenic peptide substrates Suc-LLVY-AMC or Boc-LRR-AMC. Reactions were started by adding various amounts of inhibitors (5 nM to 500 μM) to a final volume of 30 μL and peptide hydrolysis was continuously monitored for 90 min by changes in fluorescence (excitation 380 nm; emission 440 nm) at 37° C. The kobs values were determined by fitting the raw data to equation (1). The slopes of the plots of kobsversus I gave an apparent value of kobs/I, also referred to as kinact/Ki for an irreversible inhibitor, which was then corrected by equation (2) to compensate for the effect of substrate competition, where app is the apparent value at different inhibitor concentrations.
Using purified human 20S proteasome (hs20S) and a fluorogenic substrate (Suc-LLVY-AMC), in vitro assays were performed to systematically assess proteasome inhibition by the syringolin analogues. The choice of substrate was based on the fact that it is preferentially acted upon by the chymotrypsin-like β5-subunits of the proteasome due to the aromatic tyrosine residue at the scissile bond (i.e., P1 position).
From measurements of the rates of hydrolysis of the fluorogenic substrate by the proteasome in the presence of increasing concentrations of each inhibitor, second-order rate constants kin/Ki (M^−1 s^−1) were determined (Table 1), which reflect both the affinity of the non-covalent binding (Ki) and the rate of the chemical reaction with the enzyme (kin). All of the syringolin analogues were capable in inhibiting the chymotrypsin-like activity of hs20S. Without wishing to be limited by any theory, consistent with the design predictions, the most significant contributor to the apparent second-order rate constants of the compounds was their binding affinity (Ki) rather than the rates of inhibition.
In vitro 20S peptidase inhibition assays were recorded in a 384-well plate at a SpectraMax M5 (Molecular Devices) plate-reader. Therefore, 5 nM human 20S (R&D) was incubated in buffer R (50 mM HEPEs-KOH, pH 7.5, 0.5 mM EDTA) with 100 μM of the fluorogenic peptide substrate Suc-LLVY-AMC. Reactions were started by adding various amounts of inhibitors 5 nM to 500 μM) to a final volume of 30 μL and peptide hydrolysis was continuously monitored for 90 minutes by changes in fluorescence (excitation 380 nm; emission 440 nm) at 37 degrees Celsius. The kobs values were determined by fitting the raw data to equation 1. The slopes of the plots of kobs versus I gave an apparent value of kob/I, also referred to as kinact/Ki for an irreversible inhibitor, which was then corrected by equation 2 to compensate for the effect of substrate competition, where app is the apparent value at different inhibitor concentrations.

SMILES: COC(=O)[C@@H](NC(=O)N[C@H](C(=O)N[C@H]1CCCCNC(=O)/C=C/[C@H](Cc2cccc(F)c2)NC1=O)C(C)C)C(C)C [Compound 6, (S)-methyl 2-(3-((S)-1-(((5S,8S,E)-5-(3-fluorobenzyl)-2,7-dioxo-1,6-diazacyclododec-3-en-8-yl)amino)-3-methyl-1-oxobutan-2-yl)ureido)-3-methylbutanoate]
- hs20S kin/Ki: 2,471 M^−1s^−1

SMILES: COC(=O)[C@@H](NC(=O)N[C@H](C(=O)N[C@H]1CCCCNC(=O)/C=C/[C@H](Cc2cc(F)cc(F)c2)NC1=O)C(C)C)C(C)C [Compound 7, (S)-methyl 2-(3-((S)-1-(((5S,8S,E)-5-(3,5-difluorobenzyl)-2,7-dioxo-1,6-diazacyclododec-3-en-8-yl)amino)-3-methyl-1-oxobutan-2-yl)ureido)-3-methylbutanoate]
- hs20S kin/Ki: 1,579 M^−1s^−1

SMILES: COC(=O)[C@@H](NC(=O)N[C@@H](Cc1ccccc1Cl)C(=O)N[C@H]1CCCCNC(=O)/C=C/[C@H](Cc2ccccc2F)NC1=O)C(C)C [Compound 17, (S)-methyl 2-(3-((S)-3-(2-chlorophenyl)-1-((5S,8S,E)-5-(2-fluorobenzyl)-2,7-dioxo-1,6-diazacyclododec-3-en-8-ylamino)-1-oxopropan-2-yl)ureido)-3-methylbutanoate]
- hs20S kin/Ki: 7271 M⁻¹ s⁻¹

SMILES: COC(=O)[C@@H](NC(=O)N[C@@H](Cc1cccc(Cl)c1)C(=O)N[C@H]1CCCCNC(=O)/C=C/[C@H](Cc2ccccc2F)NC1=O)C(C)C [Compound 18, (S)-methyl 2-(3-((S)-3-(3-chlorophenyl)-1-((5S,8S,E)-5-(2-fluorobenzyl)-2,7-dioxo-1,6-diazacyclododec-3-en-8-ylamino)-1-oxopropan-2-yl)ureido)-3-methylbutanoate]
- hs20S kin/Ki: 4656 M⁻¹ s⁻¹

SMILES: COC(=O)[C@@H](NC(=O)N[C@@H](Cc1ccccc1)C(=O)N[C@H]1CCCCNC(=O)/C=C/[C@H](Cc2ccccc2F)NC1=O)C(C)C [Compound 19, (S)-methyl 2-(3-((S)-1-((5S,8S,E)-5-(2-fluorobenzyl)-2,7-dioxo-1,6-diazacyclododec-3-en-8-ylamino)-1-oxo-3-phenylpropan-2-yl)ureido)-3-methylbutanoate]
- hs20S kin/Ki: 5877 M⁻¹ s⁻¹

SMILES: COC(=O)[C@@H](NC(=O)N[C@@H](Cc1cccc(C)c1)C(=O)N[C@H]1CCCCNC(=O)/C=C/[C@H](Cc2ccccc2F)NC1=O)C(C)C [Compound 20, (S)-methyl 2-(3-((S)-1-((5S,8S,E)-5-(2-fluorobenzyl)-2,7-dioxo-1,6-diazacyclododec-3-en-8-ylamino)-1-oxo-3-m-tolylpropan-2-yl)ureido)-3-methylbutanoate]
- hs20S kin/Ki: 3797 M⁻¹ s⁻¹

SMILES: COC(=O)[C@@H](NC(=O)N[C@@H](Cc1ccc(C)cc1)C(=O)N[C@H]1CCCCNC(=O)/C=C/[C@H](Cc2ccccc2F)NC1=O)C(C)C [Compound 21, (S)-methyl 2-(3-((S)-1-((5S,8S,E)-5-(2-fluorobenzyl)-2,7-dioxo-1,6-diazacyclododec-3-en-8-ylamino)-1-oxo-3-p-tolylpropan-2-yl)ureido)-3-methylbutanoate]
- hs20S kin/Ki: 7332 M⁻¹ s⁻¹

SMILES: COC(=O)[C@@H](NC(=O)N[C@@H](Cc1cccc(F)c1)C(=O)N[C@H]1CCCCNC(=O)/C=C/[C@H](Cc2ccccc2F)NC1=O)C(C)C [Compound 23, (S)-methyl 2-(3-((S)-1-((5S,8S,E)-5-(2-fluorobenzyl)-2,7-dioxo-1,6-diazacyclododec-3-en-8-ylamino)-3-(3-fluorophenyl)-1-oxopropan-2-yl)ureido)-3-methylbutanoate]
- hs20S kin/Ki: 2199 M⁻¹ s⁻¹

SMILES: COC(=O)[C@@H](NC(=O)N[C@@H](Cc1ccccc1Cl)C(=O)N[C@H]1CCCCNC(=O)/C=C/[C@H](Cc2cccc(F)c2)NC1=O)C(C)C [Compound 24, (S)-methyl 2-(3-((S)-3-(2-chlorophenyl)-1-((5S,8S,E)-5-(3-fluorobenzyl)-2,7-dioxo-1,6-diazacyclododec-3-en-8-ylamino)-1-oxopropan-2-yl)ureido)-3-methylbutanoate]
- hs20S kin/Ki: 2749 M⁻¹ s⁻¹

SMILES: COC(=O)[C@@H](NC(=O)N[C@@H](Cc1cccc(Cl)c1)C(=O)N[C@H]1CCCCNC(=O)/C=C/[C@H](Cc2cccc(F)c2)NC1=O)C(C)C [Compound 25, (S)-methyl 2-(3-((S)-3-(3-chlorophenyl)-1-((5S,8S,E)-5-(3-fluorobenzyl)-2,7-dioxo-1,6-diazacyclododec-3-en-8-ylamino)-1-oxopropan-2-yl)ureido)-3-methylbutanoate]
- hs20S kin/Ki: 8532 M⁻¹ s⁻¹

SMILES: COC(=O)[C@@H](NC(=O)N[C@@H](Cc1ccc(Cl)cc1)C(=O)N[C@H]1CCCCNC(=O)/C=C/[C@H](Cc2cccc(F)c2)NC1=O)C(C)C [Compound 26, (S)-methyl 2-(3-((S)-3-(4-chlorophenyl)-1-((5S,8S,E)-5-(3-fluorobenzyl)-2,7-dioxo-1,6-diazacyclododec-3-en-8-ylamino)-1-oxopropan-2-yl)ureido)-3-methylbutanoate]
- hs20S kin/Ki: 12605 M⁻¹ s⁻¹

SMILES: COC(=O)[C@@H](NC(=O)N[C@@H](Cc1ccccc1)C(=O)N[C@H]1CCCCNC(=O)/C=C/[C@H](Cc2cccc(F)c2)NC1=O)C(C)C [Compound 27]
- hs20S kin/Ki: 14336 M⁻¹ s⁻¹

SMILES: COC(=O)[C@@H](NC(=O)N[C@@H](Cc1cccc(C)c1)C(=O)N[C@H]1CCCCNC(=O)/C=C/[C@H](Cc2cccc(F)c2)NC1=O)C(C)C [Compound 28, (S)-methyl 2-(3-((S)-1-((5S,8S,E)-S-(3 fluorobenzyl)-2,7-dioxo-1,6-diazacyclododec-3-en-8-ylamino)-1-oxo-3-m-tolylpropan-2-yl)ureido)-3-methylbutanoate]
- hs20S kin/Ki: 12866 M⁻¹ s⁻¹

SMILES: COC(=O)[C@@H](NC(=O)N[C@@H](Cc1ccc(C)cc1)C(=O)N[C@H]1CCCCNC(=O)/C=C/[C@H](Cc2cccc(F)c2)NC1=O)C(C)C [Compound 29, (S)-methyl 2-(3-((S)-1-((5S,8S,E)-S-(3-fluorobenzyl)-2,7-dioxo-1,6-diazacyclododec-3-en-8-ylamino)-1-oxo-3-p-tolylpropan-2 yl)ureido)-3-methylbutanoate]
- hs20S kin/Ki: 11670 M⁻¹ s⁻¹

SMILES: COC(=O)[C@@H](NC(=O)N[C@@H](Cc1ccccc1F)C(=O)N[C@H]1CCCCNC(=O)/C=C/[C@H](Cc2cccc(F)c2)NC1=O)C(C)C [Compound 30, (S)-methyl 2-(3-((S)-1-((5S,8S,E)-S-(3-fluorobenzyl)-2,7-dioxo-1,6-diazacyclododec-3-en-8-ylamino)-3-(2-fluorophenyl)-1-oxopropan-2 yl)ureido)-3-methylbutanoate]
- hs20S kin/Ki: 12202 M⁻¹ s⁻¹

SMILES: COC(=O)[C@@H](NC(=O)N[C@@H](Cc1cccc(F)c1)C(=O)N[C@H]1CCCCNC(=O)/C=C/[C@H](Cc2cccc(F)c2)NC1=O)C(C)C [Compound 31, (S)-methyl 2-(3-((S)-1-((5S,8S,E)-5-(3-fluorobenzyl)-2,7-dioxo-1,6-diazacyclododec-3-en-8-ylamino)-3-(3-fluorophenyl)-1-oxopropan-2-yl)ureido)-3-methylbutanoate]
- hs20S kin/Ki: 5016 M⁻¹ s⁻¹

SMILES: COC(=O)[C@@H](NC(=O)N[C@@H](Cc1cccc(C(F)(F)F)c1)C(=O)N[C@H]1CCCCNC(=O)/C=C/[C@H](Cc2cccc(F)c2)NC1=O)C(C)C [Compound 32, (S)-methyl 2-(3-((S)-1-((5S,8S,E)-5-(3-fluorobenzyl)-2,7-dioxo-1,6-diazacyclododec-3-en-8-ylamino)-1-oxo-3-(3-(trifluoromethyl)phenyl)propan-2-yl)ureido)-3-methylbutanoate]
- hs20S kin/Ki: 4531 M⁻¹ s⁻¹
